Entries after “also recorded” stand apart in the source; their conditions may differ. Like-named read-outs stand apart in the source and are kept apart here.
Conditions: for Comments: stability of the polymorph: Table 3, solid polymorph of brequinar sodium salt on storage; for Time after which the polymorph converts to Pattern C / Stability of the polymorphic form under ambient conditions (temperature and humidity): sodium salt; for Stability of the polymorphic form under ambient conditions (temperature and humidity): unstable forms convert to Pattern C

Structure (SMILES)	Comments: stability of the polymorph	Time after which the polymorph converts to Pattern C (closed cap storage)	Stability of the polymorphic form under ambient conditions (temperature and humidity)	Time after which the polymorph converts to Pattern C (at ambient condition)	Stability of the polymorphic form under ambient conditions (temperature and humidity) (listed as polymorphic form C)
Cc1c(-c2ccc(-c3ccccc3F)cc2)nc2ccc(F)cc2c1C(=O)[O-].[Na+] [Pattern J, 6-Flouro-2-(2′-fluoro-1,1′-biphenyl-4-yl)-3-methyl-4-quinolinecarboxylic acid sodium salt]	Unstable, convert to Pattern	C after 2 weeks (closed cap	unstable		
Cc1c(-c2ccc(-c3ccccc3F)cc2)nc2ccc(F)cc2c1C(=O)[O-].[Na+] [Pattern I, 6-Flouro-2-(2′-fluoro-1,1′-biphenyl-4-yl)-3-methyl-4-quinolinecarboxylic acid sodium salt]	KF 7.3%, unstable,		unstable	2 days at ambient condition.	
Cc1c(-c2ccc(-c3ccccc3F)cc2)nc2ccc(F)cc2c1C(=O)[O-].[Na+] [Pattern F, 6-Flouro-2-(2′-fluoro-1,1′-biphenyl-4-yl)-3-methyl-4-quinolinecarboxylic acid sodium salt]		Pattern C after 1 week	unstable		
Cc1c(-c2ccc(-c3ccccc3F)cc2)nc2ccc(F)cc2c1C(=O)[O-].[Na+] [Pattern E, 6-Flouro-2-(2′-fluoro-1,1′-biphenyl-4-yl)-3-methyl-4-quinolinecarboxylic acid sodium salt]		Pattern C after 1 week	unstable		
Cc1c(-c2ccc(-c3ccccc3F)cc2)nc2ccc(F)cc2c1C(=O)[O-].[Na+] [Pattern A, 6-Flouro-2-(2′-fluoro-1,1′-biphenyl-4-yl)-3-methyl-4-quinolinecarboxylic acid sodium salt]			metastable		
Cc1c(-c2ccc(-c3ccccc3F)cc2)nc2ccc(F)cc2c1C(=O)[O-].[Na+] [Pattern C, 6-Flouro-2-(2′-fluoro-1,1′-biphenyl-4-yl)-3-methyl-4-quinolinecarboxylic acid sodium salt]					stable; also recorded: most stable
Cc1c(-c2ccc(-c3ccccc3F)cc2)nc2ccc(F)cc2c1C(=O)[O-].[Na+] [Pattern B, 6-Flouro-2-(2′-fluoro-1,1′-biphenyl-4-yl)-3-methyl-4-quinolinecarboxylic acid sodium salt]	hydrate KF 4.8% unstable,		unstable	convert to Pattern C after 4 days	
Cc1c(-c2ccc(-c3ccccc3F)cc2)nc2ccc(F)cc2c1C(=O)[O-].[Na+] [Pattern G, 6-Flouro-2-(2′-fluoro-1,1′-biphenyl-4-yl)-3-methyl-4-quinolinecarboxylic acid sodium salt]	15.3%), unstable, convert		unstable	to Pattern C after 2 weeks	
Cc1c(-c2ccc(-c3ccccc3F)cc2)nc2ccc(F)cc2c1C(=O)[O-].[Na+] [Pattern D, 6-Flouro-2-(2′-fluoro-1,1′-biphenyl-4-yl)-3-methyl-4-quinolinecarboxylic acid sodium salt]			unstable	C after 3 days at ambient	

Source: patent US12076315B2 (Clear Creek Bio, Inc., priority 2020, dated 2024)
